The values that follow come from patent US8912121B2, “Herbicidal compositions comprising 4-amino-3-chloro-5-fluoro-6-(4-chloro-2-fluoro-3-methoxyphenyl)pyridine-2-carboxylic acid or a derivative thereof and certain PS II inhibitors” (Dow Agrosciences LLC, priority 2012, dated 2014).

For assay [1], the system named is ECHCG (Echinochloa crusgalli, barnyardgrass). In words: In-water applied mixtures, transplanted paddy rice, greenhouse. Particulars: 21 DAA. The format is in vivo, Echinochloa crusgalli (L.) Beauv. As to the method: Weed seeds or nutlets of the desired test plant species were planted in puddled soil (mud) prepared by mixing a shredded, non-sterilized mineral soil (50.5 percent silt, 25.5 percent clay, and 24 percent sand, with a pH of about 7.6 and an organic matter content of about 2.9 percent) and water at a 1:1 volumetric ratio. The prepared mud was dispensed in 365 mL aliquots into 16-ounce (oz.) non-perforated plastic pots with a surface area of 86.59 square centimeters (cm^2) leaving a headspace of 3 centimeters (cm) in each pot Mud was allowed to dry overnight prior to planting or transplanting. Rice seeds were planted in Sun Gro MetroMix® 306 planting mixture, which typically has a pH of 6.0 to 6.8 and an organic matter content of about 30 percent, in plastic plug trays. Seedlings at the second or third leaf stage of growth were transplanted into 840 mL of mud contained in 32-oz. non-perforated plastic pots with a surface area of 86.59 cm^2 4 days prior to herbicide application. The paddy was created by filling the headspace of the pots with 2.5 to 3 cm of water. When required to ensure good germination and healthy plants, a fungicide treatment and/or other chemical or physical treatment was applied. The plants were grown for 4-22 days in a greenhouse with an approximate 14 h photoperiod which was maintained at about 29° C during the day and 26° C. during the night. Nutrients were added as Osmocote® (19:6:12, N:P:K+ minor nutrients) at 2 g per 16-oz. pot and 4 g per 32-oz. pot. Water was added on a regular basis to maintain the paddy flood, and supplemental lighting was provided with overhead metal halide 1000-Watt lamps as necessary. The plants were employed for testing when they reached the first through fourth true leaf stage. […]
(§1) Treatment requirements for each compound or herbicidal component were calculated based upon the rates being tested, the concentration of active ingredient or acid equivalent in the formulation, an application volume of 2 mL per component per pot, and an application area of 86.59 cm^2 per pot.
For formulated compounds, a measured amount was placed in an individual 100 or 200 mL glass vial and was dissolved in a volume of 1.25% (v/v) Agri-Dex® crop oil concentrate to obtain application solutions. […]
(§2) The treated plants and control plants were placed in a greenhouse as described above and water was added as needed to maintain a paddy flood. After approximately 3 weeks the condition of the test plants as compared with that of the untreated plants was determined visually and scored on a scale of 0 to 100 percent where 0 corresponds to no injury or growth inhibition and 100 corresponds to complete kill. […]

The test system of assay [2] is ECHOR (Echinochloa oryzoides, early watergrass). The description is as above. The assay is classed as in vivo, Echinochloa oryzoides (Ard.) Fritsch. Conditions: 19 DAA. The procedure: Weed seeds or nutlets of the desired test plant species were planted in puddled soil (mud) prepared by mixing a shredded, non-sterilized mineral soil (50.5 percent silt, 25.5 percent clay, and 24 percent sand, with a pH of about 7.6 and an organic matter content of about 2.9 percent) and water at a 1:1 volumetric ratio. The prepared mud was dispensed in 365 mL aliquots into 16-ounce (oz.) non-perforated plastic pots with a surface area of 86.59 square centimeters (cm^2) leaving a headspace of 3 centimeters (cm) in each pot Mud was allowed to dry overnight prior to planting or transplanting. Rice seeds were planted in Sun Gro MetroMix® 306 planting mixture, which typically has a pH of 6.0 to 6.8 and an organic matter content of about 30 percent, in plastic plug trays. Seedlings at the second or third leaf stage of growth were transplanted into 840 mL of mud contained in 32-oz. non-perforated plastic pots with a surface area of 86.59 cm^2 4 days prior to herbicide application. The paddy was created by filling the headspace of the pots with 2.5 to 3 cm of water. When required to ensure good germination and healthy plants, a fungicide treatment and/or other chemical or physical treatment was applied. The plants were grown for 4-22 days in a greenhouse with an approximate 14 h photoperiod which was maintained at about 29° C during the day and 26° C. during the night. Nutrients were added as Osmocote® (19:6:12, N:P:K+ minor nutrients) at 2 g per 16-oz. pot and 4 g per 32-oz. pot. Water was added on a regular basis to maintain the paddy flood, and supplemental lighting was provided with overhead metal halide 1000-Watt lamps as necessary. The plants were employed for testing when they reached the first through fourth true leaf stage.
Treatments consisted of the acid or esters of 4-amino-3-chloro-5-fluoro-6-(4-chloro-2-fluoro-3-methoxy-phenyl)pyridine-2-carboxylic acid (compound A) each formulated as an SC (suspension concentrate) and various herbicidal components alone and in combination. Forms of compound A were applied on an acid equivalent basis.
Other herbicidal components were applied on an active ingredient basis and included photosystem II (PSII)-inhibits propanil formulated as […] bentazon-sodium formulated as Basagran®, and simetryne (technical grade material).
as §1
For formulated compounds, a measured amount was placed in an individual 100 or 200 mL glass vial and was dissolved in a volume of 1.25% (v/v) Agri-Dex® crop oil concentrate to obtain application solutions.
For technical grade compounds, a weighed amount was placed in an individual 100 to 200 mL glass vial and was dissolved in a volume of acetone to obtain concentrated stock solutions. […] The concentrated stock solutions obtained were diluted with an equivalent volume of an aqueous mixture containing 2.5% (v/v) crop oil concentrate so that the final application solutions contained 1.25% (v/v) crop oil concentrate.
Applications were made by injecting with a pipetter appropriate amounts of the application solutions, individually and sequentially, into the aqueous layer of the paddy. Control plants were treated in the same manner with the solvent blank. Applications were made so that all treated plant material received the same concentrations of acetone and crop oil concentrate.
as §2

As for `COc1c(Cl)ccc(-c2nc(C(=O)O)c(Cl)c(N)c2F)c1F` [Compound A Acid, 4-amino-3-chloro-6-(4-chloro-2-fluoro-3-methoxyphenyl)-5-fluoropyridine-2-carboxylic acid], the “Visual Weed Control (%) Obs” value in assay [1] (8.75 g ae/ha) and in assay [1] (17.5 g ae/ha) was 0% throughout.

On to `COc1c(Cl)ccc(-c2nc(C(=O)OCc3ccccc3)c(Cl)c(N)c2F)c1F` [Compound A Benzyl Ester, benzyl ester of 4-amino-3-chloro-5-fluoro-6-(4-chloro-2-fluoro-3-methoxy-phenyl)pyridine-2-carboxylic acid], for which the figures for the “Visual Weed Control (%) Obs” value in assay [2] (8 g ae/ha), in assay [2] (16 g ae/ha) and in assay [2] (32 g ae/ha) were 10%, 20% and 25%, respectively.
